Consider 3 compounds from US20100063070A1, “COMBINATION FOR USE IN THE TREATMENT OF INFLAMMATORY DISORDERS” (priority 2006, published 2010).

Broadly, the inhibition is the change of the read-out against control, counted positive when it falls. A lower inhibition goes with a response near the control.

For assay [1], the system named is zymosan-induced PMN leukocyte accumulation. The experiment in a line: Zymosan-induced peritonitis in the mouse (PMN leukocytes in peritoneal lavage fluid). The note with it: NMRI mice; 5 hours after i.p. zymosan; pemirolast 0.5 mg i.p. with zymosan; atorvastatin sodium 0.35 mg 24 hours and 90 minutes before. It counts as in vivo. As for the experimental part: The atorvastatin injection was given 24 hours before zymosan was administered i.p. and the atorvastatin injection was given 90 minutes before zymosan was administered […]. Prior to injection, atorvastatin was dissolved at 1 mg/mL in sterile PBS using sonication and warming as needed. […] The number of polymorphonuclear (PMN) leukocytes per mL of lavage fluid was counted by light microscopy (using standard morphological criteria) following staining of nuclei with Tü's solution. Lavage fluid from non-inflamed peritoneal cavities from untreated animals provided baseline levels of PMN leukocytes.

The subject of assay [2] is human macrophage cell-line MonoMac-6 (MM6). The experiment in a line: Inhibition of macrophage proliferation (WST-1 reagent). It counts as cell-based. The following applies: 48 hours, n=5; for inhibition at 10 µM / inhibition at 30 µM / inhibition at 100 µM: Homo sapiens; for inhibition at 10 µM: MONO-MAC-6, 10 μM drug alone; for inhibition at 30 µM: MONO-MAC-6, 30 μM drug alone; for inhibition at 100 µM: MONO-MAC-6, 100 μM drug alone. The method, then: Cells from the human macrophage cell-line MonoMac-6 (MM6) (Ziegler-Heitbrock et al, Int. J. Cancer, 41, 456 (1988)) were cultured (37° C./5% CO2) in RPMI-1640 medium supplemented with 1 mM sodium pyruvate, 1× nonessential amino acids, 1-100 μg/mL insulin, 1 mM oxalacetic acid, 100 units/mL penicillin, 100 μg/mL streptomycin and 10% (v/v) fetal bovine serum. At the start of the experiment, MM6 cells were seeded in 96-well plates at a density of 1×10^5 cells/mL (100 μl per well). Proliferation of the MM6 cells was measured using the Cell Proliferation Reagent WST-1 (Roche Diagnostics Scandinavia AB, Bromma, Sweden) or by cell counting using a microscope. The WST-1 reagent is designed to be used for spectrophotometric quantification of e.g. cell growth in proliferation assays and was used according to the manufacturers' instructions. The wavelength for measuring absorbance was 450 nm and the absorbance of all untreated control cells exposed to the WST-1 reagent was between 1.0 and 2.5. Stock solutions of pemirolast (potassium salt; see Example 19 above) and rosuvastatin (sodium salt; see Example 19 above) were made in sterile saline.
Untreated MM6 cells increased from 1×10^5 cells/mL at the start of the experiment to 1.4×10^5±0.06×10^5 cells/mL and 2.3×10^5±0.10×10^5 cells/mL after 24 and 48 hours, respectively (mean values±sem, n=4 for each of the three time-points). The effects of pemirolast and/or rosuvastatin (added at the start of the experiments) on MM6 cell proliferation were studied 48 hours after start of the experiments using the WST-1 reagent described above.
The procedure described in Example 20 was repeated for atorvastatin (sodium salt; received as atorvastatin calcium as a gift from Biocon, Ltd., Bangalore, India and converted into sodium salt by firstly converting the calcium salt into the free acid by addition of aqueous hydrochloric acid and then, after isolation via extraction, adding one equivalent of aqueous NaOH).
(Tetrazolium assays rely on reduction of a dye to a coloured formazan, in cell work by metabolically active cells.)

For assay [3], the system named is bone marrow-derived cultured mouse mast cells (mMC). The experiment in a line: Inhibition of mast cell interferon-γ formation (IgE-receptor cross-linking with TNP-BSA, Cytometric Bead Array). In kind it is cell-based. The following applies: for mean IFN-γ concentration in supernatants: mMC stimulated with TNP-BSA for 24 hours, n=2. As for the experimental part: Bone marrow-derived cultured mouse mast cells (mMC) were obtained by culturing bone marrow cells from female C57BL/6 mice. The bone marrow cells (from mouse femurs flushed with PBS) were cultured (37° C./5% CO2) in 10% X-63 enriched conditioned RPMI 1640, supplemented with 10% heat-inactivated fetal bovine serum, 4 mM L-glutamine, 50 μM 2-mercaptoethanol, 1 mM sodium pyruvate, 0.1 mM non-essential amino acids, 10 mM Hepes, 100 units/mL penicillin and 100 μg/mL streptomycin. Development of mast cells was confirmed by toluidine blue staining. The experiments were performed after 6 to 8 weeks of culture. To activate the mMC through cross-linking of cell-surface IgE-receptors, the cultured mMC were initially sensitized for 90 minutes at 37° C. (5% CO2) with a monoclonal mouse anti-TNP IgE-antibody (IgE1-b4, ATCC, Rockville, Md., USA), used as a 15% hybridoma supernatant. Cells were then subjected to two washings with PBS and re-suspended in RPMI-1640 medium supplemented with 0.2% bovine serum albumin (BSA) before the cells (0.5 mL of medium with 1×10^6 cells per mL) were activated by addition of TNP-BSA (Biosearch Technologies, San Francisco, Calif.) with a coupling ratio of 9/1 (the final TNP-BSA concentration was 100 ng/mL). The incubation (37° C./5% CO2) with TNP-BSA was 24 hours. Before the incubation with TNP-BSA, some cells were treated/incubated (37° C./5% CO2) with the test drugs pemirolast (potassium salt purchased from American Custom Chemicals Corporation, San Diego, Calif., USA) and/or rosuvastatin (extracted and purified from commercially available Crestor® tablets and isolated as calcium salt as described in Bioorganic & Medicinal Chemistry, Vol. 5, No. 5, pp 437-444, 1997 by adding CaCl2) 30 minutes prior to addition of TNP-BSA (stock solutions of the drugs were made in sterile saline). For comparison, some experiments were performed without the drug treatments. After the incubations with TNP-BSA, the samples were centrifuged at 4° C. to spin down the cells and the supernatants analysed with regard to content of mouse IFN-γ using the BD™ Cytometric Bead Array (CBA) Mouse Inflammation Kit from BD Biosciences Pharmingen, San Diego, USA (the kit was used according to the manufacturer's instructions).

On to `CC(C)c1c(C(=O)Nc2ccccc2)c(-c2ccccc2)c(-c2ccc(F)cc2)n1CC[C@@H](O)C[C@@H](O)CC(=O)O` [atorvastatin], for which the “reduction of zymosan-induced PMN leukocyte accumulation compared with untreated animals” value in assay [1] is listed as 25.9%. In assay [2], this compound had an inhibition at 10 µM of 19.9%, an inhibition at 30 µM of 27% and an inhibition at 100 µM of 54.4%.
In the case of `Cc1cccn2c(=O)c(-c3nnn[nH]3)cnc12` [pemirolast], in assay [1], the “reduction of zymosan-induced PMN leukocyte accumulation compared with untreated animals” value was determined as 10.1%. Further, the “mean IFN-γ concentration in supernatants” value came out at 2.00 µg/mL in assay [3] (3 μM drug alone) and 1.74 µg/mL in assay [3] (30 μM drug alone). Further, the “reduction of IFN-γ compared with the untreated cells” value in assay [3] (30 μM drug alone, TNP-BSA 24 hours) is listed as “about 3%”. In addition, the “inhibition of MM6 proliferation” value in assay [2] (10 μM drug alone) is recorded as “very similar to that of 100 μM of pemirolast”. Moreover, 100 µM produced 9.4% inhibition in assay [2].
Regarding `CC(C)c1nc(N(C)S(C)(=O)=O)nc(-c2ccc(F)cc2)c1/C=C/[C@@H](O)C[C@@H](O)CC(=O)O` [rosuvastatin], the “mean IFN-γ concentration in supernatants” value in assay [3] (3 μM drug alone) is 2.26 µg/mL. Besides, the “mean IFN-γ concentration in supernatants” value in assay [3] (30 μM drug alone) is 1.88 µg/mL. In assay [2], this compound registered an inhibition at 10 µM of 16.6%, an inhibition at 30 µM of 22.7% and an inhibition at 100 µM of 66.9%.
